Reference: patent US10981932B2, “Macrocyclic indole derivatives” (Bayer Aktiengesellschaft, priority 2016, dated 2021)
Like-named read-outs stand apart in the source and are kept apart here.

Assays:
A2780 = assay: Anti-proliferative effect (CellTiter-Glo, 72 h), A2780; format: cell-based; conditions: A2780 cells, median, read-out: IC50 antiproliferation assay A2780 [M] (median)
How it was run: (§1)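 CTG luminescence read-out after 72 h compound exposure, 37 °C, humidified. Time-zero reference plate read at plating.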

SUDHL10 [1] = assay: Anti-proliferative effect (CellTiter-Glo, 72 h), SUDHL10; format: cell-based; conditions: SUDHL10 cells, antiproliferation, median, read-out: Antiproli SUDHL10 [M] (median)
How it was run: as §1

SUDHL5 [2] = assay: Anti-proliferative effect (CellTiter-Glo, 72 h), SUDHL5; format: cell-based; conditions: SUDHL5 cells, antiproliferation, median, read-out: Antiproli SUDHL5 [M] (median)
How it was run: as §1

SUDHL5 [3] = assay: Induction of caspase-3/7 activity (Caspase-Glo 3/7), SUDHL5; format: cell-based; conditions: caspase-3/7 induction, SUDHL5 cells, 3 h treatment, median
How it was run: (§2)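 Caspase-Glo 3/7 luminescence, 3 h compound exposure, 37 °C, humidified. Minus medium-only blank. EC50 fit: C0=1, plateau = reference max induction.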

SUDHL5 [4] = assay: Induction of cytotoxicity (CellTiter-Glo, 5 h), SUDHL5
SUDHL10 [5] = assay: Induction of caspase-3/7 activity (Caspase-Glo 3/7), SUDHL10; format: cell-based; conditions: caspase-3/7 induction, SUDHL10 cells, 3 h treatment, median
How it was run: as §2

MCL-1 = MCL-1 (Homo sapiens, UniProt Q07820); assay: Protein-protein interaction assay MCL-1/Noxa BH3 peptide (MCL-1 assay), TR-FRET; format: binding; conditions: MBP-MCL-1 / Noxa BH3-derived peptide, median
How it was run: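 Displacement of the biotinylated Noxa BH3 peptide from MBP-tagged human MCL-1 (1 nM) is detected by time-resolved FRET. Compounds are tested in duplicate across eleven concentrations up to 20 μM, incubated 1 h at 22 °C and overnight at 4 °C, and IC50 is fitted with a four-parameter equation.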

SUDHL10 [6] = assay: Induction of cytotoxicity (CellTiter-Glo, 5 h), SUDHL10
[7] = Homo sapiens, SU-DHL10, 72 h, 72 h
[8] = Homo sapiens, SU-DHL-5, 72 h, 72 h
[9] = Homo sapiens, SU-DHL-5, 5 h, read-out: Cytotox SUDHL5 [M] (median), SUDHL5 cells, cytotoxicity induction, CellTiter-Glo, 5 h, median
[10] = Homo sapiens, SU-DHL10, 5 h, read-out: Cytotox SUDHL10 [M] (median), SUDHL10 cells, cytotoxicity induction, CellTiter-Glo, 5 h, median
[11] = Homo sapiens, SU-DHL10, 72 h, 72 h incubation
[12] = read-out: Cytotox SUDHL5 [M] (median), SUDHL5 cells, cytotoxicity induction, CellTiter-Glo, 5 h incubation, median
[13] = read-out: Cytotox SUDHL10 [M] (median), SUDHL10 cells, cytotoxicity induction, CellTiter-Glo, 5 h incubation, median

MCL-1, sequence (Q07820 whole entry): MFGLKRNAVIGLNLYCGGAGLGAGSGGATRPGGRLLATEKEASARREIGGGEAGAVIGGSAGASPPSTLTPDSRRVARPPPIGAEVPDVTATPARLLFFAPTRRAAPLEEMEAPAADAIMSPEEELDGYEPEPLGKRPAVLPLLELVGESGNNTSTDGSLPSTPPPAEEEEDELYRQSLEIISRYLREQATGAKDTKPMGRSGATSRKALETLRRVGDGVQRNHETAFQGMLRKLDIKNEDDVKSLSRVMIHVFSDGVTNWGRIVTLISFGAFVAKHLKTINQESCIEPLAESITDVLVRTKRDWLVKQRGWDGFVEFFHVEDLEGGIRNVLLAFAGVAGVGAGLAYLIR

SMILES | IC50 (A2780; Homo sapiens, A2780, 72 h) [M] | IC50 (SUDHL10 [1]; [7]) [M] | IC50 (SUDHL5 [2]; [8]) [M] | EC50 (SUDHL5 [3]; Homo sapiens, SU-DHL-5, 3 h) [µM] | EC50 (SUDHL10 [5]; Homo sapiens, SU-DHL10, 3 h) [µM] | IC50 (MCL-1) [µM] | IC50 (SUDHL10 [1]; [11]) [M] | IC50 (SUDHL5 [2]; 72 h incubation) [M] | EC50 (SUDHL5 [3]) [µM] | EC50 (SUDHL10 [5]) [µM] | IC50 (A2780) [M] | IC50 (SUDHL10 [1]; 72 h incubation) [M] | IC50 (SUDHL5 [4]; [9]) [M] | IC50 (SUDHL10 [6]; [10]) [M] | IC50 (SUDHL5 [4]; [12]) [M] | IC50 (SUDHL10 [6]; Homo sapiens, SU-DHL10, 5 h, read-out: Cytotox SUDHL10 [M] (median), SUDHL10 cells, cytotoxicity induction, CellTiter-Glo, 5 h incubation, median) | IC50 (SUDHL10 [6]; [13]) [M]
CC(=O)N(C)Cc1nn(C)c2c1-c1cccc3c(CCCOc4cccc5ccccc45)c(C(=O)O)n(c13)CCCCOC2 (racemic) [Example 342, (rac)-3-{[acetyl(methyl)amino]methyl}-1-methyl-7-[3-(naphthalen-1-yloxy)propyl]-1,10,11,12,13,15-hexahydropyrazolo[4′,3′:9,10][1,6]oxazacycloundecino[8,7,6-hi]indole-8-carboxylic Acid] | > 3.3e-05 | 1.9e-05 | 3.15e-05 | 25 | > 33 | 0.0451 |  |  |  |  |  |  | > 3.3e-05 | > 3.3e-05 |  |  | 
COc1ccc2c(CCCOc3cccc4ccccc34)c(C(=O)O)n3c2c1-c1c(nn(C)c1C)COCCCC3 (racemic) [Example 349, (rac)-4-methoxy-2,3-dimethyl-7-[3-(naphthalen-1-yloxy)propyl]-2,10,11,12,13,15-hexahydropyrazolo[4′,3′:9,10][1,6]oxazacycloundecino[8,7,6-hi]indole-8-carboxylic Acid] | > 3.3e-05 | 1.67e-05 | 1.86e-05 | 31 | > 33 | 0.0819 |  |  |  |  |  |  | 2.43e-05 | > 3.3e-05 |  |  | 
CN1CCN(Cc2c3c(nn2C)COCCCCn2c(C(=O)O)c(CCCOc4cccc5ccccc45)c4cccc-3c42)CC1 (racemic) [Example 359, (rac)-2-methyl-3-[(4-methylpiperazin-1-yl)methyl]-7-[3-(naphthalen-1-yloxy)propyl]-2,10,11,12,13,15-hexahydropyrazolo[4′,3′:9,10][1,6]oxazacycloundecino[8,7,6-hi]indole-8-carboxylic Acid] | > 3.3e-05 | > 3.3e-05 | > 3.3e-05 | > 33 | > 33 | 0.075 |  |  |  |  |  |  | > 3.3e-05 | > 3.3e-05 |  |  | 
CN1CCCn2c(C(=O)O)c(CCCOc3cccc4ccccc34)c3cccc(c32)-c2c(nn3c2OCCC3)C1 (racemic) [Example 360, (rac)-7-methyl-1-[3-(naphthalen-1-yloxy)propyl]-5,6,7,8,12,13-hexahydro-4H,11H-[1,3]oxazino[3″,2″:1′,5′]pyrazolo[3′,4′:7,8][1,5]diazecino[9,10,1-hi]indole-2-carboxylic Acid] | > 3.3e-05 | 1.44e-05 | 2.12e-05 | 32.6 | > 33 | 0.0198 |  |  |  |  |  |  | > 3.3e-05 | > 3.3e-05 |  |  | 
Cc1ccc2c(C(C)CCOc3cccc4c3CCCC4)c(C(=O)O)n3c2c1-c1c(nn(C)c1C)COCCCC3 (racemic) [Example 363, 11,12,13-trimethyl-1-(4-((5,6,7,8-tetrahydronaphthalen-1-yl)oxy)butan-2-yl)-4,5,6,7,9,11-hexahydropyrazolo[4′,3′:9,10][1,6]oxaazacycloundecino[8,7,6-hi]indole-2-carboxylic Acid (Mixture of Stereoisomers)] | 1.54e-05 | 1.13e-05 | 1.14e-05 | 20.2 | 23.1 | 0.042 |  |  |  |  |  |  | 1.68e-05 | 2.97e-05 |  |  | 
Cn1nc(COc2cncnc2)c2c1COCCCCn1c(C(=O)O)c(CCCOc3cccc4ccccc34)c3cccc-2c31 (single isomer, unassigned) [Example 211, 1-methyl-7-[3-(naphthalen-1-yloxy)propyl]-3-[(pyrimidin-5-yloxy)methyl]-1,10,11,12,13,15-hexahydropyrazolo[4′,3′:9,10][1,6]oxazacycloundecino[8,7,6-hi]indole-8-carboxylic Acid] | > 3.3e-05 |  |  |  | > 33 | 0.174 | 4.44e-06 | 2.44e-06 | > 33 |  |  |  |  |  | > 3.3e-05 | > 3.3e-05 | 
Cn1ccnc1COCc1nn(C)c2c1-c1cccc3c(CCCOc4cccc5ccccc45)c(C(=O)O)n(c13)CCCCOC2 (single isomer, unassigned) [Example 232, (+)-1-methyl-3-{[(1-methyl-1H-imidazol-2-yl)methoxy]methyl}-7-[3-(naphthalen-1-yloxy)propyl]-1,10,11,12,13,15-hexahydropyrazolo[4′,3′:9,10][1,6]oxazacycloundecino[8,7,6-hi]indole-8-carboxylic Acid] | > 3.3e-05 |  |  |  |  | 0.00974 | 1.97e-05 | 2.94e-06 | 9.57 | 13.1 |  |  |  |  | 7.5e-06 |  | 1.32e-05

Continued by falling IC50 (MCL-1), values first:

IC50 (A2780; Homo sapiens, A2780, 72 h) [M] | IC50 (SUDHL10 [1]; [7]) [M] | IC50 (SUDHL5 [2]; [8]) [M] | EC50 (SUDHL5 [3]; Homo sapiens, SU-DHL-5, 3 h) [µM] | EC50 (SUDHL10 [5]; Homo sapiens, SU-DHL10, 3 h) [µM] | IC50 (MCL-1) [µM] | IC50 (SUDHL10 [1]; [11]) [M] | IC50 (SUDHL5 [2]; 72 h incubation) [M] | EC50 (SUDHL5 [3]) [µM] | EC50 (SUDHL10 [5]) [µM] | IC50 (A2780) [M] | IC50 (SUDHL10 [1]; 72 h incubation) [M] | SMILES | IC50 (SUDHL5 [4]; [9]) [M] | IC50 (SUDHL10 [6]; [10]) [M] | IC50 (SUDHL5 [4]; [12]) [M] | IC50 (SUDHL10 [6]; Homo sapiens, SU-DHL10, 5 h, read-out: Cytotox SUDHL10 [M] (median), SUDHL10 cells, cytotoxicity induction, CellTiter-Glo, 5 h incubation, median) | IC50 (SUDHL10 [6]; [13]) [M]
 |  |  |  |  | 0.242 |  | 9.23e-06 | 25.3 | > 33 | > 3.3e-05 | 1.85e-05 | Cn1ccnc1COCc1nn(C)c2c1-c1cccc3c(CCCOc4cccc5ccccc45)c(C(=O)O)n(c13)CCCCOC2 (single isomer, unassigned) [Example 233, (−)-1-methyl-3-{[(1-methyl-1H-imidazol-2-yl)methoxy]methyl}-7-[3-(naphthalen-1-yloxy)propyl]-1,10,11,12,13,15-hexahydropyrazolo[4′,3′:9,10][1,6]oxazacycloundecino[8,7,6-hi]indole-8-carboxylic Acid] |  |  | 2.15e-05 |  | > 3.3e-05
 |  |  |  |  | 0.0427 |  | 1.79e-05 | > 33 | > 33 | 1.82e-05 | 7.58e-06 | O=C(O)c1c(CCCOc2cccc3ccccc23)c2cccc3c2n1CCCCOCc1nn2c(c1-3)OCCC2 (single isomer, unassigned) [Example 249, 1-[3-(naphthalen-1-yloxy)propyl]-4,5,6,7,13,14-hexahydro-9H,12H-[1,3]oxazino[3″,2″:1′,5′]pyrazolo[4′,3′:9,10][1,6]oxazacycloundecino[8,7,6-hi]indole-2-carboxylic Acid] |  |  | > 3.3e-05 |  | > 3.3e-05
> 3.3e-05 | 7.7e-06 | 3.66e-06 | 10.1 | > 33 | 0.0248 |  |  |  |  |  |  | CN1CCCn2c(C(=O)O)c(CCCOc3cccc4ccccc34)c3cccc(c32)-c2c(nn3c2CCCC3)C1 (racemic) [Example 361, (rac)-7-methyl-1-[3-(naphthalen-1-yloxy)propyl]-5,6,7,8,11,12,13,14-octahydro-4H-pyrido[1″,2″:1′,5′]pyrazolo[3′,4′:7,8][1,5]diazecino[9,10,1-hi]indole-2-carboxylic Acid] | 1.09e-05 | 1.84e-05 |  |  | 
2.32e-05 | 3.54e-06 | 9.09e-06 | 25.1 | 32.4 | 0.0142 |  |  |  |  |  |  | Cn1nc(COCc2ccc(C(N)=O)cc2)c2c1COCCCCn1c(C(=O)O)c(CCCOc3cccc4ccccc34)c3cccc-2c31 (racemic) [Example 346, (rac)-3-{[(4-carbamoylbenzyl)oxy]methyl}-1-methyl-7-[3-(naphthalen-1-yloxy)propyl]-1,10,11,12,13,15-hexahydropyrazolo[4′,3′:9,10][1,6]oxazacycloundecino[8,7,6-hi]indole-8-carboxylic Acid] | 2.02e-05 | > 3.3e-05 |  |  | 
2.34e-05 |  |  |  |  | 0.00474 | 8.78e-06 | 6.51e-06 | 3.17 | 12.9 | > 3.3e-05 |  | O=C(O)c1c(CCCOc2cccc3ccccc23)c2cccc3c2n1CCCCOCc1nn2c(c1-3)OCCC2 (single isomer, unassigned) [Example 248, 1-[3-(naphthalen-1-yloxy)propyl]-4,5,6,7,13,14-hexahydro-9H,12H-[1,3]oxazino[3″,2″:1′,5]pyrazolo[4′,3′:9,10][1,6]oxazacycloundecino[8,7,6-hi]indole-2-carboxylic Acid] |  |  | 3.38e-06 |  | 1.29e-05
